For this assay, the system named is 186277-243-T-J2-PDC spheroids with HUVEC/MSC, viability. Put plainly: Anticancer human tumor 186277-243-T-J2-PDC patient-derived colon adenocarcinoma cell line growth inhibition [CLK]. To be noted: for viability, T/C: stronger effect = lower value. The method in brief:
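Multi-cell-type spheroids combined patient-derived tumor cells with HUVEC endothelial cells and human mesenchymal stem cells. Paired agents were dosed in half-log steps down from about clinical Cmax, or from 10 microM where Cmax was unknown.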

Where [1] appears, read: curve of first compound, second compound 0.0316 µM.
The mark [2] stands for this setting: curve of first compound, second compound 0.1 µM.
Setting [3] is: curve of first compound, second compound 0.316 µM.
Setting [4] is: curve of first compound, second compound 1 µM.
Where [5] appears, read: curve of first compound, second compound 3.16 µM.
Setting [6] is: curve of first compound, second compound 10 µM.
The mark [7] stands for this setting: second compound 0.0316 µM, first compound 0.0316 µM.
[8] abbreviates: second compound 0.0316 µM, first compound 0.1 µM.
Setting [9] is: second compound 0.0316 µM, first compound 0.316 µM.
Where [10] appears, read: second compound 0.0316 µM, first compound 1 µM.
The mark [11] stands for this setting: second compound 0.1 µM, first compound 0.0316 µM.
Where [12] appears, read: second compound 0.1 µM, first compound 0.1 µM.
[13] abbreviates: second compound 0.1 µM, first compound 0.316 µM.
Where [14] appears, read: second compound 0.1 µM, first compound 1 µM.
Where [15] appears, read: second compound 0.316 µM, first compound 0.0316 µM.
The mark [16] stands for this setting: second compound 0.316 µM, first compound 0.1 µM.
Where [17] appears, read: second compound 0.316 µM, first compound 0.316 µM.
[18] abbreviates: second compound 0.316 µM, first compound 1 µM.
Where [19] appears, read: second compound 1 µM, first compound 0.0316 µM.
The mark [20] stands for this setting: second compound 1 µM, first compound 0.1 µM.
Where [21] appears, read: second compound 1 µM, first compound 0.316 µM.
[22] abbreviates: second compound 1 µM, first compound 1 µM.
Setting [23] is: second compound 3.16 µM, first compound 0.0316 µM.
[24] abbreviates: second compound 3.16 µM, first compound 0.1 µM.
Where [25] appears, read: second compound 3.16 µM, first compound 0.316 µM.
The mark [26] stands for this setting: second compound 3.16 µM, first compound 1 µM.
The mark [27] stands for this setting: second compound 10 µM, first compound 0.0316 µM.
Setting [28] is: second compound 10 µM, first compound 0.1 µM.
Where [29] appears, read: second compound 10 µM, first compound 0.316 µM.
Setting [30] is: second compound 10 µM, first compound 1 µM.

pIC50: −log10 of the molar value. “And” between values parts separate entries of the source, which are not always exact repeats. Equal values may be shown once.
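Also: compound exposure lasted seven days before readout.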
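For viability, T/C in this document: 100% = DMSO vehicle control wells.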

As to `COc1ccc([C@@H](O)c2cc(-c3ncnc4cc(N5CCOCC5)ccc34)c(F)cc2Cl)nn1`, the viability, T/C (commonly the ratio of treated to control) is 95.1% (compound 0.0316 µM); 96.1% (compound 0.1 µM); 117% (compound 0.316 µM); 85.1% (compound 1 µM); 87.2% (compound 3.16 µM); 49.2% (compound 10 µM). Also, for the setting “curve of compound”, the negative logarithm of the IC50 (pIC50) (in general, the IC50 on a negative log10 scale, so that one unit is a factor of ten) is 5.00.

Take `O=C(c1cc(Cc2n[nH]c(=O)c3ccccc23)ccc1F)N1CCN(C(=O)C2CC2)CC1`: the viability, T/C is 102% (compound 0.0316 µM); 90% and 99.4% (compound 0.1 µM); 101% and 109% (compound 0.316 µM); 114% and 110% (compound 1 µM); 118% and 119% (compound 3.16 µM); 126% and 103% (compound 10 µM). Further, for the setting “curve of compound”, the pIC50 was less than 5.00.

In the case of `Nc1ccccc1NC(=O)c1ccc(CNC(=O)OCc2cccnc2)cc1`, the viability, T/C by setting is: (compound 0.0316 µM) 100% and 92.4%; (compound 0.1 µM) 88.7% and 92%; (compound 0.316 µM) 85.5% and 84.9%; (compound 1 µM) 110% and 100%; (compound 3.16 µM) 76.6% and 48%; (compound 10 µM) 23.2% and 13.7%. For the same compound, the negative logarithm of the IC50 (pIC50) (curve of compound) was 5.25 and 5.52.

Regarding `CCc1c2c(nc3ccc(O)cc13)-c1cc3c(c(=O)n1C2)COC(=O)[C@]3(O)CC` + CNC(=O)c1ccc(Nc2nc(OC3CCCC3)c3c(-c4ccc5nc(C)oc5c4)c[nH]c3n2)c(OC)c1, the pIC50 reads like this: under setting [1], 7.61; under setting [2], 7.65; under setting [3], 7.94; under setting [4], greater than 8.50; under setting [5], greater than 8.50; under setting [6], greater than 8.50. In addition, the viability, T/C reads like this: (second compound 0.0316 µM, first compound 0.00316 µM) 101%; (second compound 0.0316 µM, first compound 0.01 µM) 73.3%; under setting [7], 43.3%; under setting [8], 23.4%; under setting [9], 16.7%; under setting [10], 11.2%. The viability, T/C is, setting by setting: (second compound 0.1 µM, first compound 0.00316 µM) 77.8%; (second compound 0.1 µM, first compound 0.01 µM) 71%; under setting [11], 40.5%; under setting [12], 19.2%; under setting [13], 16.6%; under setting [14], 10.3%. The viability, T/C was 64.4% (second compound 0.316 µM, first compound 0.00316 µM); 54% (second compound 0.316 µM, first compound 0.01 µM); 21% under setting [15]; 12.9% under setting [16]; 12.4% under setting [17]; 7.31% under setting [18]. In addition, the viability, T/C was 47.3% (second compound 1 µM, first compound 0.00316 µM); 31.8% (second compound 1 µM, first compound 0.01 µM); 12.8% under setting [19]; 8.64% under setting [20]; 5.93% under setting [21]; 4% under setting [22]. The viability, T/C reads like this: (second compound 3.16 µM, first compound 0.00316 µM) 43.4%; (second compound 3.16 µM, first compound 0.01 µM) 23.8%; under setting [23], 8.87%; under setting [24], 10.9%; under setting [25], 6.99%; under setting [26], 3.82%. The viability, T/C (second compound 10 µM, first compound 0.00316 µM) was 40.6%; the viability, T/C (second compound 10 µM, first compound 0.01 µM) is 24%; the viability, T/C under setting [27] was 10.3%; the viability, T/C under setting [28] was 6.46%; the viability, T/C under setting [29] was 7.11%; the viability, T/C under setting [30] is 4.09%.

For `CCCS(=O)(=O)Nc1ccc(F)c(C(=O)c2c[nH]c3ncc(-c4ccc(Cl)cc4)cc23)c1F` + CN1CCN(c2cc(C(=O)Nc3cc4cc(-c5cnn(C)c5)ccc4cn3)ccn2)CC1, the negative logarithm of the IC50 (pIC50) was less than 5.00 under setting [1]; less than 5.00 under setting [2]; greater than 7.50 under setting [3]; greater than 7.50 under setting [4]; greater than 7.50 under setting [5]; greater than 7.50 under setting [6]. Further, the viability, T/C is, setting by setting: under setting [7], 109%; under setting [8], 104%; under setting [9], 103%; under setting [10], 97.4%; (second compound 0.0316 µM, first compound 3.16 µM) 113%; (second compound 0.0316 µM, first compound 10 µM) 89.6%. Moreover, the viability, T/C by setting is: under setting [11], 87.4%; under setting [12], 82.3%; under setting [13], 86.7%; under setting [14], 99.4%; (second compound 0.1 µM, first compound 3.16 µM) 95.9%; (second compound 0.1 µM, first compound 10 µM) 69.2%. Further, the viability, T/C runs as follows: under setting [15], 30.5%; under setting [16], 30.9%; under setting [17], 31.8%; under setting [18], 32.1%; (second compound 0.316 µM, first compound 3.16 µM) 22.5%; (second compound 0.316 µM, first compound 10 µM) 20.1%. Also, the viability, T/C reads like this: under setting [19], 0.48%; under setting [20], 0.83%; under setting [21], 1.17%; under setting [22], 1.25%; (second compound 1 µM, first compound 3.16 µM) 0.57%; (second compound 1 µM, first compound 10 µM) 0.46%. Moreover, the viability, T/C reads like this: under setting [23], 1.11%; under setting [24], 1.22%; under setting [25], 2.84%; under setting [26], 1.64%; (second compound 3.16 µM, first compound 3.16 µM) 2.61%; (second compound 3.16 µM, first compound 10 µM) 1.65%. The viability, T/C was 0.65% under setting [27]; 0.72% under setting [28]; 1.61% under setting [29]; 0.95% under setting [30]; 1.27% (second compound 10 µM, first compound 3.16 µM); 0.74% (second compound 10 µM, first compound 10 µM).

For `CC(C)CC(NC(=O)C(Cc1ccccc1)NC(=O)c1cnccn1)B(O)O` (centres undefined), the viability, T/C by setting is: (compound 0.000949 µM) 95.9% and 106%; (compound 0.003 µM) 75.5% and 53.2%; (compound 0.00949 µM) 0.47% and 2.37%; (compound 0.03 µM) 0.24% and 0.94%; (compound 0.0949 µM) 0.79% and 3.7%; (compound 0.3 µM) 0.71% and 0.52%. For the same compound, for the setting “curve of compound”, the pIC50 was 8.35 and 8.49.

Regarding `O=c1[nH]cc(F)c(=O)[nH]1`, the viability, T/C (compound 0.0316 µM) was 99.2% and 100%; the viability, T/C (compound 0.1 µM) is 84.2% and 98.6%; the viability, T/C (compound 0.316 µM) is 99% and 94.5%; the viability, T/C (compound 1 µM) was 93.7% and 97%; the viability, T/C (compound 3.16 µM) was 108% and 102%; the viability, T/C (compound 10 µM) was 65.2% and 63%. Also, the pIC50 (curve of compound) is less than 5.00.
